{"source": "patent US6603046B1", "about": "“Bis-aromatic a,β-unsaturated ketones” (Lica Pharmaceuticals A/S, priority 1992, dated 2003)", "key": {"[1]": {"system": "chloroquine-sensitive P. falciparum 3D7A strain", "assay": "In vitro growth of P. falciparum 3D7A, 3H-hypoxanthine uptake (Example 15)", "assay_type": "cell-based, Plasmodium falciparum", "details": "for Percentage inhibition of 3H-hypoxanthine uptake (mean ± SEM): title: percentage inhibition of 3H-hypoxanthine uptake"}, "P. yoelii strain YM": {"system": "P. yoelii strain YM", "assay": "P. yoelii strain YM infection in mice, parasitemia and mortality (Example 16)", "assay_type": "in vivo, BALB/c mice"}, "[2]": {"system": "chloroquine resistant P. falciparum DD2 strain", "assay": "In vitro growth of P. falciparum DD2, 3H-hypoxanthine uptake (Example 15)", "assay_type": "cell-based, Plasmodium falciparum", "details": "Plasmodium falciparum, DD2, read-out: concentration in which parasite growth was retarded by 50%"}, "[3]": {"details": "D + 10, i.p. 0.5 mg/kg/day once daily D0-D + 3"}, "[4]": {"details": "D + 12, i.p. 0.5 mg/kg/day once daily D0-D + 3"}, "[5]": {"details": "D + 14, i.p. 0.5 mg/kg/day once daily D0-D + 3"}, "[6]": {"details": "D + 16, i.p. 0.5 mg/kg/day once daily D0-D + 3"}, "[7]": {"details": "D + 16, i.p. 2.5 mg/kg/day once daily D0-D + 3"}, "[8]": {"details": "D + 18, i.p. 0.5 mg/kg/day once daily D0-D + 3"}, "[9]": {"details": "D + 18, i.p. 2.5 mg/kg/day once daily D0-D + 3"}, "[10]": {"details": "D + 20, i.p. 0.5 mg/kg/day once daily D0-D + 3"}, "[11]": {"details": "D + 20, i.p. 2.5 mg/kg/day once daily D0-D + 3"}, "[12]": {"details": "D + 20, i.p. 5 mg/kg/day once daily D0-D + 3"}}, "data": [{"smiles": "CCN(CC)CCCC(C)Nc1ccnc2cc(Cl)ccc12", "note": "(stereo not shown) [Chloroquine, chloroquine phosphate, reference compound]", "values": [{"measurement": "IC50", "setting": "[1]; Plasmodium falciparum, read-out: concentration in which growth was retarded by 50%", "value": "38 to 75", "unit": "µg/mL"}, {"measurement": "Percentage inhibition of 3H-hypoxanthine uptake (mean ± SEM)", "setting": "[1]; 38 ng/ml", "value": "34.0 ± 6.1", "unit": "%"}, {"measurement": "Percentage inhibition of 3H-hypoxanthine uptake (mean ± SEM)", "setting": "[1]; 75 ng/ml", "value": "80.2 ± 3.7", "unit": "%"}, {"measurement": "Percentage inhibition of 3H-hypoxanthine uptake (mean ± SEM)", "setting": "[1]; 150 ng/ml", "value": "97.1 ± 1.0", "unit": "%"}, {"measurement": "Percentage inhibition of 3H-hypoxanthine uptake (mean ± SEM)", "setting": "[1]; 300 ng/ml", "value": "98.8 ± 0.3", "unit": "%"}, {"measurement": "% parasitemia (mean ± SEM)", "setting": "P. yoelii strain YM; D + 4, i.p. 0.5 mg/kg/day once daily D0-D + 3", "value": "0.9 ± 0.5", "unit": "%"}, {"measurement": "% parasitemia (mean ± SEM)", "setting": "P. yoelii strain YM; D + 4, i.p. 2.5 mg/kg/day once daily D0-D + 3", "value": "0.2 ± 0.2", "unit": "%"}, {"measurement": "% parasitemia (mean ± SEM)", "setting": "P. yoelii strain YM; D + 4, i.p. 5 mg/kg/day once daily D0-D + 3", "value": "0.02 ± 0.04", "unit": "%"}, {"measurement": "% parasitemia (mean ± SEM)", "setting": "P. yoelii strain YM; D + 6, i.p. 0.5 mg/kg/day once daily D0-D + 3", "value": "24 ± 8.6", "unit": "%"}, {"measurement": "% parasitemia (mean ± SEM)", "setting": "P. yoelii strain YM; D + 6, i.p. 2.5 mg/kg/day once daily D0-D + 3", "value": "2.4 ± 2.2", "unit": "%"}, {"measurement": "% parasitemia (mean ± SEM)", "setting": "P. yoelii strain YM; D + 6, i.p. 5 mg/kg/day once daily D0-D + 3", "value": 0, "unit": "%"}, {"measurement": "% parasitemia (mean ± SEM)", "setting": "P. yoelii strain YM; D + 8, i.p. 0.5 mg/kg/day once daily D0-D + 3", "value": "57.4 ± 4.2", "unit": "%"}, {"measurement": "% parasitemia (mean ± SEM)", "setting": "P. yoelii strain YM; D + 8, i.p. 2.5 mg/kg/day once daily D0-D + 3", "value": "28.3 ± 16.2", "unit": "%"}, {"measurement": "% parasitemia (mean ± SEM)", "setting": "P. yoelii strain YM; D + 8, i.p. 5 mg/kg/day once daily D0-D + 3", "value": "0.1 ± 0.17", "unit": "%"}, {"measurement": "% parasitemia (mean ± SEM)", "setting": "P. yoelii strain YM; [3]", "value": "66.3 ± 6.6", "unit": "%"}, {"measurement": "mortality (no. of dead mice/total no. of tested mice)", "setting": "P. yoelii strain YM; [3]", "value": "(2/5)"}, {"measurement": "% parasitemia (mean ± SEM)", "setting": "P. yoelii strain YM; D + 10, i.p. 2.5 mg/kg/day once daily D0-D + 3", "value": "33.7 ± 19.8", "unit": "%"}, {"measurement": "% parasitemia (mean ± SEM)", "setting": "P. yoelii strain YM; D + 10, i.p. 5 mg/kg/day once daily D0-D + 3", "value": "2.8 ± 2.7", "unit": "%"}, {"measurement": "% parasitemia (mean ± SEM)", "setting": "P. yoelii strain YM; [4]", "value": "49.7 ± 17.6", "unit": "%"}, {"measurement": "mortality (no. of dead mice/total no. of tested mice)", "setting": "P. yoelii strain YM; [4]", "value": "(2/5)"}, {"measurement": "% parasitemia (mean ± SEM)", "setting": "P. yoelii strain YM; D + 12, i.p. 2.5 mg/kg/day once daily D0-D + 3", "value": "40.2 ± 21", "unit": "%"}, {"measurement": "% parasitemia (mean ± SEM)", "setting": "P. yoelii strain YM; D + 12, i.p. 5 mg/kg/day once daily D0-D + 3", "value": "13 ± 4.4", "unit": "%"}, {"measurement": "% parasitemia (mean ± SEM)", "setting": "P. yoelii strain YM; [5]", "value": "35.3 ± 4.7", "unit": "%"}, {"measurement": "mortality (no. of dead mice/total no. of tested mice)", "setting": "P. yoelii strain YM; [5]", "value": "(2/5)"}, {"measurement": "% parasitemia (mean ± SEM)", "setting": "P. yoelii strain YM; D + 14, i.p. 2.5 mg/kg/day once daily D0-D + 3", "value": "37.4 ± 19.8", "unit": "%"}, {"measurement": "% parasitemia (mean ± SEM)", "setting": "P. yoelii strain YM; D + 14, i.p. 5 mg/kg/day once daily D0-D + 3", "value": "22.4 ± 6.1", "unit": "%"}, {"measurement": "% parasitemia (mean ± SEM)", "setting": "P. yoelii strain YM; [6]", "value": "18.5 ± 19.1", "unit": "%"}, {"measurement": "mortality (no. of dead mice/total no. of tested mice)", "setting": "P. yoelii strain YM; [6]", "value": "(3/5)"}, {"measurement": "% parasitemia (mean ± SEM)", "setting": "P. yoelii strain YM; [7]", "value": "4.7 ± 4.6", "unit": "%"}, {"measurement": "mortality (no. of dead mice/total no. of tested mice)", "setting": "P. yoelii strain YM; [7]", "value": "(2/5)"}, {"measurement": "% parasitemia (mean ± SEM)", "setting": "P. yoelii strain YM; D + 16, i.p. 5 mg/kg/day once daily D0-D + 3", "value": "62.2 ± 24.5", "unit": "%"}, {"measurement": "% parasitemia (mean ± SEM)", "setting": "P. yoelii strain YM; [8]", "value": 9, "unit": "%"}, {"measurement": "mortality (no. of dead mice/total no. of tested mice)", "setting": "P. yoelii strain YM; [8]", "value": "4/5"}, {"measurement": "% parasitemia (mean ± SEM)", "setting": "P. yoelii strain YM; [9]", "value": 0, "unit": "%"}, {"measurement": "mortality (no. of dead mice/total no. of tested mice)", "setting": "P. yoelii strain YM; [9]", "value": "2/5"}, {"measurement": "% parasitemia (mean ± SEM)", "setting": "P. yoelii strain YM; D + 18, i.p. 5 mg/kg/day once daily D0-D + 3", "value": "75.2 ± 3.3", "unit": "%"}, {"measurement": "% parasitemia (mean ± SEM)", "setting": "P. yoelii strain YM; [10]", "value": 0, "unit": "%"}, {"measurement": "mortality (no. of dead mice/total no. of tested mice)", "setting": "P. yoelii strain YM; [10]", "value": "4/5"}, {"measurement": "% parasitemia (mean ± SEM)", "setting": "P. yoelii strain YM; [11]", "value": 0, "unit": "%"}, {"measurement": "mortality (no. of dead mice/total no. of tested mice)", "setting": "P. yoelii strain YM; [11]", "value": "2/5"}, {"measurement": "% parasitemia (mean ± SEM)", "setting": "P. yoelii strain YM; [12]", "value": "50 ± 16.4", "unit": "%"}, {"measurement": "mortality (no. of dead mice/total no. of tested mice)", "setting": "P. yoelii strain YM; [12]", "value": "(1/5)"}, {"measurement": "IC50", "setting": "[2]", "value": "0.075 to 0.15", "unit": "µg/mL"}]}]}
